pIC50: −log10 of the molar value.
Assays:
[1] = system: AβTotal; test: Amyloidβ peptide release (AβTotal) assay, AlphaLisa on supernatant of APPswe-HEK cells; format: cell-based, human; conditions: 24 hours, ratio Abtot versus Ab42
Description: (§1) Amyloidβ Peptide Release (Aβ42 & AβTotal) Assay to Determine IC50 Values.
(§2) Amyloidβ peptide release (Aβ42 & AβTotal) assay are performed in 384 well microtiter plates (Perkin Elmer AlphaPlate #6008350) in a final volume of 20 μl, using supernatant coming from APPswe-HEK cells exposed to test compounds. Compounds are dissolved in and diluted in 100% DMSO and incubated with APPswe-HEK cells for 24 hours a 37° C. in 5% CO2. The supernatant from APPswe-HEK cells are mixed with antibodies: for Aβ42 detection: AlphaLisa Amyloid β 1-42 Kit (Perkin Elmer AL203L) Anti-Amyloid β1-42-specific antibody acceptor beads, biotinylated anti-Amyloid “β1-42” antibody and streptavidin (SA) donor beads diluted in AlphaLisa buffer (to the instructions of the supplier). For Aβ total detection: Custom Anti-Amyloid βtotal acceptor beads (6E10 acceptor beads), biotinylated anti-Amyloid “β1-42” antibody (Perkin Elmer AL203L) and streptavidin (SA) donor beads diluted in AlphaLisa buffer (to the instructions of the supplier). After addition of supernatant to the antibody mix, the assay is incubated 4 h and 30 minutes. AmyloidP peptide release (Aβ42 & AβTotal) is measured with a Pherastar FS (BMG) multimode reader using the alphascreen module.

[2] = system: Aβ42; test: Amyloidβ peptide release (Aβ42) assay, AlphaLisa on supernatant of APPswe-HEK cells; format: cell-based; conditions: Homo sapiens, 24 hours incubation with compound, read-out: Ab42 IC50 Ranges
Description: as §1, §2

pIC50 [2] | Structure (SMILES) | Abtot/Ab42 selectivity ranges [1]
6.30 to 6.82 | Cc1cn(-c2ccc(NC(=O)c3nnn4c3CCC4c3ccc(Cl)cc3)cc2F)cn1 (stereo not shown) [Example 26, 6-(4-chlorophenyl)-N-(3-fluoro-4-(4-methyl-1H-imidazol-1-yl)phenyl)-5,6-dihydro-4H-pyrrolo[1,2-c][1,2,3]triazole-3-carboxamide] | b (b: 100 fold > selectivity ≧ 50 fold)
6.30 to 6.82 | Cc1cn(-c2ccc(NC(=O)c3nnn4c3CCC4c3ccc(Cl)cc3)cc2C#N)cn1 (stereo not shown) [Example 27, 6-(4-chlorophenyl)-N-(3-cyano-4-(4-methyl-1H-imidazol-1-yl)phenyl)-5,6-dihydro-4H-pyrrolo[1,2-c][1,2,3]triazole-3-carboxamide] | c (c: 50 fold > selectivity ≧ 10 fold)
≥ 6.82 | COc1cc(NC(=O)c2nnn3c2CCC3c2ccc(Cl)cc2)ccc1-n1cnc(C)c1 (stereo not shown) [Example 28, 6-(4-chlorophenyl)-N-(3-methoxy-4-(4-methyl-1H-imidazol-1-yl)phenyl)-5,6-dihydro-4H-pyrrolo[1,2-c][1,2,3]triazole-3-carboxamide] | b (b: 100 fold > selectivity ≧ 50 fold)
> 6.00 | COc1nc(NC(=O)c2nnn3c2CCC3c2ccc(Cl)cc2)ccc1-n1cnc(C)c1 (stereo not shown) [Example 29, 6-(4-chlorophenyl)-N-(6-methoxy-5-(4-methyl-1H-imidazol-1-yl)pyridin-2-yl)-5,6-dihydro-4H-pyrrolo[1,2-c][1,2,3]triazole-3-carboxamide] | a (a: selectivity ≧ 100 fold)
≥ 6.82 | COc1cc(NC(=O)c2nnn3c2CC[C@@H]3c2ccc(Cl)cc2)ccc1-n1cnc(C)c1 [Example 30, (R)-6-(4-chlorophenyl)-N-(3-methoxy-4-(4-methyl-1H-imidazol-1-yl)phenyl)-5,6-dihydro-4H-pyrrolo[1,2-c][1,2,3]triazole-3-carboxamide] | b (b: 100 fold > selectivity ≧ 50 fold)
6.30 to 6.82 | COc1cc(NC(=O)c2nnn3c2CC[C@H]3c2ccc(Cl)cc2)ccc1-n1cnc(C)c1 [Example 31, (S)-6-(4-chlorophenyl)-N-(3-methoxy-4-(4-methyl-1H-imidazol-1-yl)phenyl)-5,6-dihydro-4H-pyrrolo[1,2-c][1,2,3]triazole-3-carboxamide] | c (c: 50 fold > selectivity ≧ 10 fold)
≥ 6.82 | COc1cc(NC(=O)c2nnn3c2CCC3c2ccccc2Cl)ccc1-n1cnc(C)c1 (stereo not shown) [Example 32, 6-(2-chlorophenyl)-N-(3-methoxy-4-(4-methyl-1H-imidazol-1-yl)phenyl)-5,6-dihydro-4H-pyrrolo[1,2-c][1,2,3]triazole-3-carboxamide] | b (b: 100 fold > selectivity ≧ 50 fold)
6.00 to 6.30 | COc1cc(NC(=O)c2nnn3c2CCC3c2ccccc2Cl)ccc1-c1cnn(C)c1 (stereo not shown) [Example 33, 6-(2-chlorophenyl)-N-(3-methoxy-4-(1-methyl-1H-pyrazol-4-yl)phenyl)-5,6-dihydro-4H-pyrrolo[1,2-c][1,2,3]triazole-3-carboxamide] | c (c: 50 fold > selectivity ≧ 10 fold)
≥ 6.82 | COc1cc(NC(=O)c2nnn3c2CCC3c2ccc(Cl)c(Cl)c2)ccc1-n1cnc(C)c1 (stereo not shown) [Example 34, 6-(3,4-dichlorophenyl)-N-(3-methoxy-4-(4-methyl-1H-imidazol-1-yl)phenyl)-5,6-dihydro-4H-pyrrolo[1,2-c][1,2,3]triazole-3-carboxamide] | a (a: selectivity ≧ 100 fold)
6.30 to 6.82 | COc1cc(NC(=O)c2nnn3c2CCC3c2ccc(Cl)c(Cl)c2)ccc1-c1cnn(C)c1 (stereo not shown) [Example 35, 6-(3,4-dichlorophenyl)-N-(3-methoxy-4-(1-methyl-1H-pyrazol-4-yl)phenyl)-5,6-dihydro-4H-pyrrolo[1,2-c][1,2,3]triazole-3-carboxamide] | c (c: 50 fold > selectivity ≧ 10 fold)
6.30 to 6.82 | COc1cc(NC(=O)c2nnn3c2CCC3c2ccc(F)cc2)ccc1-n1cnc(C)c1 (stereo not shown) [Example 36, 6-(4-fluorophenyl)-N-(3-methoxy-4-(4-methyl-1H-imidazol-1-yl)phenyl)-5,6-dihydro-4H-pyrrolo[1,2-c][1,2,3]triazole-3-carboxamide] | b (b: 100 fold > selectivity ≧ 50 fold)
> 6.00 | COc1cc(NC(=O)c2nnn3c2CCC3c2ccc(F)cc2)ccc1-c1cnn(C)c1 (stereo not shown) [Example 37, 6-(4-fluorophenyl)-N-(3-methoxy-4-(1-methyl-1H-pyrazol-4-yl)phenyl)-5,6-dihydro-4H-pyrrolo[1,2-c][1,2,3]triazole-3-carboxamide] | c (c: 50 fold > selectivity ≧ 10 fold)
6.30 to 6.82 | COc1cc(NC(=O)c2nnn3c2COCC3c2ccc(Cl)cc2)ccc1-n1cnc(C)c1 (stereo not shown) [Example 38, 7-(4-chlorophenyl)-N-(3-methoxy-4-(4-methyl-1H-imidazol-1-yl)phenyl)-6,7-dihydro-4H-[1,2,3]triazolo[5,1-c][1,4]oxazine-3-carboxamide] | b (b: 100 fold > selectivity ≧ 50 fold)
6.30 to 6.82 | COc1cc(C(=O)Nc2nnn3c2CCCC3c2ccc(F)cc2Cl)ccc1-n1cnc(C)c1 (stereo not shown) [Example 39, N-(7-(2-chloro-4-fluorophenyl)-4,5,6,7-tetrahydro-[1,2,3]triazolo[1,5-a]pyridin-3-yl)-3-methoxy-4-(4-methyl-1H-imidazol-1-yl)benzamide] | b (b: 100 fold > selectivity ≧ 50 fold)
6.30 to 6.82 | COc1cc(C(=O)Nc2nnn3c2CCCC3c2ccc(Cl)cc2)ccc1-n1cnc(C)c1 (stereo not shown) [Example 40, N-(7-(4-chlorophenyl)-4,5,6,7-tetrahydro-[1,2,3]triazolo[1,5-a]pyridin-3-yl)-3-methoxy-4-(4-methyl-1H-imidazol-1-yl)benzamide] | b (b: 100 fold > selectivity ≧ 50 fold)
6.30 to 6.82 | COc1cc(C(=O)Nc2nnn3c2CCCC3c2ccc(Cl)c(Cl)c2)ccc1-n1cnc(C)c1 (stereo not shown) [Example 41, N-(7-(3,4-dichlorophenyl)-4,5,6,7-tetrahydro-[1,2,3]triazolo[1,5-a]pyridin-3-yl)-3-methoxy-4-(4-methyl-1H-imidazol-1-yl)benzamide] | b (b: 100 fold > selectivity ≧ 50 fold)
6.00 to 6.30 | COc1cc(C(=O)Nc2nnn3c2CCCC3c2cccc(C(F)(F)F)c2)ccc1-n1cnc(C)c1 (stereo not shown) [Example 42, 3-methoxy-4-(4-methyl-1H-imidazol-1-yl)-N-(7-(3-(trifluoromethyl)phenyl)-4,5,6,7-tetrahydro-[1,2,3]triazolo[1,5-a]pyridin-3-yl)benzamide] | c (c: 50 fold > selectivity ≧ 10 fold)
> 6.00 | COc1cc(C(=O)Nc2nnn3c2CCCC3c2ccc(F)cc2)ccc1-n1cnc(C)c1 (stereo not shown) [Example 43, N-(7-(4-fluorophenyl)-4,5,6,7-tetrahydro-[1,2,3]triazolo[1,5-a]pyridin-3-yl)-3-methoxy-4-(4-methyl-1H-imidazol-1-yl)benzamide] | a (a: selectivity ≧ 100 fold)
6.30 to 6.82 | COc1cc(C(=O)Nc2nnn3c2CCC3c2ccc(Cl)cc2)ccc1-n1cnc(C)c1 (stereo not shown) [Example 44, N-(6-(4-chlorophenyl)-5,6-dihydro-4H-pyrrolo[1,2-c][1,2,3]triazol-3-yl)-3-methoxy-4-(4-methyl-1H-imidazol-1-yl)benzamide] | c (c: 50 fold > selectivity ≧ 10 fold)
6.30 to 6.82 | COc1cc(C(=O)Nc2nnn3c2CCC3c2ccc(Cl)c(Cl)c2)ccc1-n1cnc(C)c1 (stereo not shown) [Example 45] | c (c: 50 fold > selectivity ≧ 10 fold)
6.00 to 6.30 | COc1cc(C(=O)Nc2nnn3c2CCC3c2ccc(F)cc2)ccc1-n1cnc(C)c1 (stereo not shown) [Example 46, N-(6-(4-fluorophenyl)-5,6-dihydro-4H-pyrrolo[1,2-c][1,2,3]triazol-3-yl)-3-methoxy-4-(4-methyl-1H-imidazol-1-yl)benzamide] | c (c: 50 fold > selectivity ≧ 10 fold)
> 6.00 | COc1cc(C(=O)Nc2nnn3c2CCC3c2ccc(F)cc2)ccc1-c1ccnc(C)c1 (stereo not shown) [Example 47, N-(6-(4-fluorophenyl)-5,-dihydro-4H-pyrrolo[1,2-c][1,2,3]triazol-3-yl)-3-methoxy-4-(2-methylpyridin-4-yl)benzamide] | d (d: 10 fold > selectivity)
> 6.00 | COc1cc(N(C)C(=O)c2nnn3c2CCCC3c2ccc(Cl)cc2)ccc1-n1cnc(C)c1 (stereo not shown) [Example 48, 7-(4-chlorophenyl)-N-(3-methoxy-4-(4-methyl-1H-imidazol-1-yl)phenyl)-N-methyl-4,5,6,7-tetrahydro-[1,2,3]triazolo[1,5-a]pyridine-3-carboxamide] | a (a: selectivity ≧ 100 fold)
